Experimental data: patent US10583137B2, “Triazole DAGLα inhibitors” (THE SCRIPPS RESEARCH INSTITUTE, priority 2015, dated 2020)

Legend:
[1] = target: LIPE (Mus musculus (Mouse), UniProt P54310); test: in vivo ABPP coupled to quantitative mass spectrometry (FP-biotin, ReDiMe); details: brain proteomes of treated mice
Experimental: (§1) The extent of these target profiles were confirmed by performing ABPP coupled to high-resolution, quantitative mass spectrometry (MS). Briefly, brain proteomes from compound and vehicle-treated mice were incubated with the serine hydrolase directed activity-based probe FP-biotin, and probe-labeled enzymes were enriched by streptavidin chromatography, digested on bead with trypsin, and the resulting tryptic peptides modified by reductive dimethylation (ReDiMe) of lysine residues using isotopically heavy and light formaldehyde, respectively. In these experiments, inhibited serine hydrolases are identified as enzymes showing low heavy/light ReDiMe ratios.

[2] = target: BCHE (Mus musculus (Mouse), UniProt Q03311); test: as above; details: brain proteomes of treated mice
Sequence of BCHE (Q03311 30-603 limits assumed): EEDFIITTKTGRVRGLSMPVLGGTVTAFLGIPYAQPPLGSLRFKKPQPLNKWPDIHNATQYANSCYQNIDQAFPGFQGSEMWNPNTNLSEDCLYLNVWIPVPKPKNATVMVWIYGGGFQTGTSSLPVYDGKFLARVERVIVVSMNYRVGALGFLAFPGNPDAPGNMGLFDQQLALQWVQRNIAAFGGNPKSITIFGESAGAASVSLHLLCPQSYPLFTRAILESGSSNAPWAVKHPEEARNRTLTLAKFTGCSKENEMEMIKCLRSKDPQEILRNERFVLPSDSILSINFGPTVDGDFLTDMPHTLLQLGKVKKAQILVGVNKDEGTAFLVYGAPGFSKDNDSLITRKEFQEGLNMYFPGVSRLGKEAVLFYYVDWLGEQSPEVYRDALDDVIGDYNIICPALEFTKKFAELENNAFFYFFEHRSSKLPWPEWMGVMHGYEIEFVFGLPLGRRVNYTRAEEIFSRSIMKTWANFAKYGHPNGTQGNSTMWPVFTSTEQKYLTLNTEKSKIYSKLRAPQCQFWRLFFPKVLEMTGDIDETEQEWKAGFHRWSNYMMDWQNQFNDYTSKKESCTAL
Experimental: as §1

[3] = target: ABHD2 (Mus musculus (Mouse), UniProt Q9QXM0); test: as above; details: brain proteomes of treated mice
Sequence of ABHD2 (Q9QXM0 whole entry): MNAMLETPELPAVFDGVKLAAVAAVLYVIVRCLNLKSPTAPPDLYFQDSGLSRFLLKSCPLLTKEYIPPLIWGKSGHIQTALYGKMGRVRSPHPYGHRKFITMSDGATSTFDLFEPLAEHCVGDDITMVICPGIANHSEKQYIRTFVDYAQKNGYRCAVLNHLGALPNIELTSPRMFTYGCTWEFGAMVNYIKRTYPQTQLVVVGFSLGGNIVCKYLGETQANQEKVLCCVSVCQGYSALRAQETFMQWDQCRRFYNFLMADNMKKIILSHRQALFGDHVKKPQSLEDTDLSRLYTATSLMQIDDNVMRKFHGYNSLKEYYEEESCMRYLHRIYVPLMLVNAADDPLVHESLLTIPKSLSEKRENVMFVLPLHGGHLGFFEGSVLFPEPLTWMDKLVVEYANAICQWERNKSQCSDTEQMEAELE
Experimental: as §1

[4] = target: PAFAH2 (Mus musculus (Mouse), UniProt Q8VDG7); test: as above; details: brain proteomes of treated mice
Sequence of PAFAH2 (Q8VDG7 whole entry): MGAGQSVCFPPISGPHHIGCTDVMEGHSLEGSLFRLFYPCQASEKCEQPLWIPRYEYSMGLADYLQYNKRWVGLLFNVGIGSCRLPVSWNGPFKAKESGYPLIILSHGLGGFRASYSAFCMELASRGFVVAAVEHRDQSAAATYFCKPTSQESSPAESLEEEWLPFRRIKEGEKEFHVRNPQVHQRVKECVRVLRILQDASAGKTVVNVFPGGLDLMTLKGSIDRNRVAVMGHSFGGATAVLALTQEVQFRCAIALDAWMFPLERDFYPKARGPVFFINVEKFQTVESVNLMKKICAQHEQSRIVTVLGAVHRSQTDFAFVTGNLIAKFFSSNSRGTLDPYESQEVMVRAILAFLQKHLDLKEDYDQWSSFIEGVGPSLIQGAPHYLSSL
Experimental: as §1

[5] = target: DAGLα (Mus musculus (Mouse), UniProt Q6WQJ1); test: time-course of DAGL inhibition and recovery in mice, competitive ABPP with compound 58 probe; format: in vivo; details: 3 mg/kg
Sequence of DAGLα (Q6WQJ1 whole entry): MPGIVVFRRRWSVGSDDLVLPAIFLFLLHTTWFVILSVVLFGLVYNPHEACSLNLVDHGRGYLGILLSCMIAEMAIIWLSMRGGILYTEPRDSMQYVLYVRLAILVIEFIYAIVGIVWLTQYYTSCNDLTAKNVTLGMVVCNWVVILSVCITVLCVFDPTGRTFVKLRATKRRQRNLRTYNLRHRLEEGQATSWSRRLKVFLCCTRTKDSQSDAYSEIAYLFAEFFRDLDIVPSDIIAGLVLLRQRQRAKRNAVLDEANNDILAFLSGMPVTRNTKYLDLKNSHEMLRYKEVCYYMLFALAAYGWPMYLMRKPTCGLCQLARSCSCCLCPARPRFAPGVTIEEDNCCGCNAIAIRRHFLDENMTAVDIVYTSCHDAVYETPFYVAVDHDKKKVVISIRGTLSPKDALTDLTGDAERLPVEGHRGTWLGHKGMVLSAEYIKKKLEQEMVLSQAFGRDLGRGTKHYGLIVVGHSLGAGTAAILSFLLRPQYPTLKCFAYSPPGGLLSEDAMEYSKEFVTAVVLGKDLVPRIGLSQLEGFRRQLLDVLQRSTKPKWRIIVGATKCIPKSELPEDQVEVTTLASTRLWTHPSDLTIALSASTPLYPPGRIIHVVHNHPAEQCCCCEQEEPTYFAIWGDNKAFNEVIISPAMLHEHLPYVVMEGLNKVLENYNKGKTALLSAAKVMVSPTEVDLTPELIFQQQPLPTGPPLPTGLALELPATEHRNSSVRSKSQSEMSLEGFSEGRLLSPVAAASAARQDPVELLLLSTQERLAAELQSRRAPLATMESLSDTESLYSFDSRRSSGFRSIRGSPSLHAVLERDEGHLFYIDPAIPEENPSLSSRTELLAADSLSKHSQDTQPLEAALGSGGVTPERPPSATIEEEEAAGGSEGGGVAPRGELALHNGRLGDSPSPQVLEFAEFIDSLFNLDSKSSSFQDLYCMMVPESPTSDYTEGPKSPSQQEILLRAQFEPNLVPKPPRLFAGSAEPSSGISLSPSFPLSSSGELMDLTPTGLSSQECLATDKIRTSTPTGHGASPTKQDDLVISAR
Experimental: (§2) Inhibition of DAGL in mice with DAGL compounds 14 and 17 was investigated as a function of time as determined by competitive ABPP using the compound 58 probe (1 μM, 30 min).

[6] = target: DAGLβ (Mus musculus (Mouse), UniProt Q91WC9); test: as above; format: in vivo; details: 3 mg/kg
Sequence of DAGLβ (Q91WC9 whole entry): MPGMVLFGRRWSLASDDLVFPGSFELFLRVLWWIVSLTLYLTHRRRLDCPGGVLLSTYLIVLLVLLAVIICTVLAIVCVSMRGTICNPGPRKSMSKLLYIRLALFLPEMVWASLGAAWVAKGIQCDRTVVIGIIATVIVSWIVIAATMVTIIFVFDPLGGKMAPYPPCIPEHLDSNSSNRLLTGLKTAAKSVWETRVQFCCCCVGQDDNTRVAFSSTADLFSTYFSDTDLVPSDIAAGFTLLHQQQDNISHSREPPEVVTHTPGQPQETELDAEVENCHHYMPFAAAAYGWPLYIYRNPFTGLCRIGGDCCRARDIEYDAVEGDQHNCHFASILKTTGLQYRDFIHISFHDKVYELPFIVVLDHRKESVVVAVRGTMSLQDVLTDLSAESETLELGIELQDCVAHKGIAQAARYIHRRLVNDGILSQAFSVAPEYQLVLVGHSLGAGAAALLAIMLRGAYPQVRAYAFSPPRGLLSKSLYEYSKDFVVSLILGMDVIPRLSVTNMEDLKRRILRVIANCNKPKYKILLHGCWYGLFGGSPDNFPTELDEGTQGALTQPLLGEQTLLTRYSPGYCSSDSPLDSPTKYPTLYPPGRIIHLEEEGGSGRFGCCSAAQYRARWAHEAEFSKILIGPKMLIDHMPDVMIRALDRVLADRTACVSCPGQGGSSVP
Experimental: as §2

Sequence of LIPE (P54310 whole entry): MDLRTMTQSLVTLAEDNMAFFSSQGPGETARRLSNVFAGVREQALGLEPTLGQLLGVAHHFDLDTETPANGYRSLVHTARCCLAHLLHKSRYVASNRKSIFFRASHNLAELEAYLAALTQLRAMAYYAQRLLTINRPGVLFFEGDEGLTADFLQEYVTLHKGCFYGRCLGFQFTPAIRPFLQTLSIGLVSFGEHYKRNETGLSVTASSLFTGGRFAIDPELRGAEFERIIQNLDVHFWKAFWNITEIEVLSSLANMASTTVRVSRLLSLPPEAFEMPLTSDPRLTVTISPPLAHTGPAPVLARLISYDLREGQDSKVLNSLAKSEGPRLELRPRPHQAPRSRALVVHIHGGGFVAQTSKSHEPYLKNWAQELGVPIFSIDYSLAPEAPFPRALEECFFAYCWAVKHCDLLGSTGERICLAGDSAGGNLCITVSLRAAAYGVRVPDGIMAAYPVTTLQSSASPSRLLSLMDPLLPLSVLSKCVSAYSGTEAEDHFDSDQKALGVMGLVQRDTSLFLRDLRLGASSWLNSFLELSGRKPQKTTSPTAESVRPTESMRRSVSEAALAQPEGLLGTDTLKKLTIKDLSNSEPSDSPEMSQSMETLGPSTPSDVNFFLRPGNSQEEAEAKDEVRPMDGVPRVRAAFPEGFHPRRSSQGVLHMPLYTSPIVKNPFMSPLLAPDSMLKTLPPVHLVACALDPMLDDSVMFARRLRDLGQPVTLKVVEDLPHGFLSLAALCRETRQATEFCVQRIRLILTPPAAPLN

C#CCO[C@@H]1CC[C@H](Cc2ccccc2)N(C(=O)n2ncc(C(O)(c3ccc(F)cc3)c3ccc(F)cc3)n2)C1 [Compound 14, ((2R,5R)-2-Benzyl-5-(prop-2-ynyloxy)piperidin-1-yl)(4-(bis(4-fluorophenyl)(hydroxy)methyl)-2H-1,2,3-triazol-2-yl)methanone]
heavy/light ReDiMe ratio, LIPE (off-target) [1]: < 0.5
heavy/light ReDiMe ratio, BCHE (off-target) [2]: < 0.5

CC(C)(C)OC(=O)N1CCN(C(=O)n2cc(-c3ccc(OC(F)(F)F)cc3)nn2)C(Cc2ccccc2)C1 (stereo not shown) [Compound 17, tert-Butyl 3-benzyl-4-(4-(4-(trifluoromethoxy)phenyl)-1H-1,2,3-triazole-1-carbonyl)piperazine-1-carboxylate]
heavy/light ReDiMe ratio, ABHD2 (off-target) [3]: < 0.5
heavy/light ReDiMe ratio, PAFAH2 (off-target) [4]: < 0.5
time by which DAGLα enzyme activity recovered [5]: ≤ 4 h
time to substantial inhibition of DAGLα after administration [5]: ≤ 30 min
inhibition of DAGLβ [6]: inhibited
